Measured values reported in patent publication US10046048B2, “Homogenous suspension of immunopotentiating compounds and uses thereof” (GlaxoSmithKline Biologicals SA, priority 2009, dated 2018).

Columns and labels:
[1] = particle size after vortexing, sonication, mortar and pestle; type: physicochemical; conditions: for average particle size: 2.5 mg/mL in 0.1% Tween 80 and 0.5% CMC, vortexing
Procedure: A number of homogenization methods were evaluated, including vortexing, sonication, and mortar and pestle method.
For vortexing, Example 47 was suspended at 2.5 mg/mL in 0.1% Tween 80 and 0.5% carboxymethyl cellulose (CMC), followed by vortexing. The average particle size was ˜100 μm.
For sonication, Example 47 was suspended at 2.5 mg/mL in 0.1% Tween 80 and 0.5% CMC followed by vortexing. The mixture was then subject to probe sonication for 5 minutes (with ice at 3 W, maximum power based on vial size). Finally, the mixture was homogenized by a handheld homogenizer for a few minutes. The average particle size was ˜80 μm.
In mortar and pestle method, 10 mg of Example 47 was ground for 5 minutes using mortar and pestle, then suspended in 0.5% Tween 80. […] Size range for the larger peak was 1-100 μm.

[2] = matrix of surfactants and suspending agents, size distribution by Mastersizer; type: physicochemical; conditions: vortexed, probe sonicated, homogenized
Procedure: A number of surfactants and suspension agents were also evaluated. The matrix of surfactants and suspending agents, and the corresponding sizes distributions of the suspension particles are shown in the Table 1 below (D50, D90 (μm)).
In each experiment, 10 mg of Example 47 was mixed with 2 mL surfactant and 2 mL suspending agent. The mixtures were vortexed for 5 minutes, and probe sonicated at 3 W and homogenized for 2-4 minutes. The size distributions of the samples were measured using Mastersizer.
No visual size reduction was observed after sonication. Some size reduction was noticed visually after homogenization.

[3] = aqueous solubility and chemical stability of Example 47; type: physicochemical
Procedure: Example 47 is a highly crystalline drug substance with very good chemical stability. Due to its extremely low aqueous solubility across full pH range (<0.5 μg/ml) and its high hydrophobic core structure, formulation with Alum (the only vaccine adjuvant licensed in the U.S.) is challenging. However, TLR7 agonist-Alum based vaccines could provide advantages, for example, induction of Th1 polarized response, and enhanced Serum Bactericidal Activity (SBA) and breath of coverage (e.g., MenB).

RSV virus = experiment: neutralizing titers (PRNT60), RSV model; type: in vivo, respiratory syncytial virus (RSV); conditions: Study 1; Balb/c mice; 25 μg dose
Source text: Mice were bled retro-orbitally on day 28.

[4] = serum, injection site muscle and lymph node levels after intramuscular injection; type: in vivo; conditions: mice, intramuscular 4 mpk with 3MenB/Alum; both DMSO (non-homogeneous) and homogeneous suspensions
[5] = 10 mg ground 5 minutes with mortar and pestle, suspended in 0.5% Tween 80
[6] = 0.5% CMC, 0.5% Sodium Lauryl Sulfate
[7] = 0.5% HPC, 0.5% Sodium Lauryl Sulfate
[8] = 0.5% HPMC, 0.5% Sodium Lauryl Sulfate

## Cc1ccc(CCc2cnc3c(N)nc4ccccc4c3c2)c(C)c1 [Example 47, 2-(2,4-dimethylphenethyl)benzo[f][1,7]naphthyridin-5-amine]
[1]
  average particle size: ~100 μm
[1]; probe sonication 5 minutes, handheld homogenizer
  average particle size: ~80 μm
[1]; [5]
  particle size peak (larger): ~8 μm
  particle size peak (smaller): 0.1 μm
  size range for the larger peak: 1-100 μm
[2]; 0.5% CMC, 0.1% Tween 80
  D50: 76.2 μm
  D90: 144.7 μm
[2]; 0.5% CMC, 0.5% Pluronic F-68
  D50: 49.1 μm
  D90: 104.4 μm
[2]; [6]
  D50: 28.0 μm
  D90: 53.3 μm
[2]; 0.5% CMC, 0.5% Tween 80
  D50: 75.8 μm
  D90: 149.1 μm
[2]; 0.5% HPC, 0.1% Tween 80
  D50: 43.6 μm
  D90: 68.0 μm
[2]; 0.5% HPC, 0.5% Pluronic F-68
  D50: 35.8 μm
  D90: 54.9 μm
[2]; [7]
  D50: 38.9 μm
  D90: 53.1 μm
[2]; 0.5% HPC, 0.5% Tween 80
  D50: 35.4 μm
  D90: 53.5 μm
[2]; 0.5% HPMC, 0.1% Tween 80
  D50: 25.8 μm
  D90: 53.5 μm
[2]; 0.5% HPMC, 0.5% Pluronic F-68
  D50: 19.4 μm
  D90: 33.5 μm
[2]; [8]
  D50: 26.8 μm
  D90: 59.3 μm
[2]; 0.5% HPMC, 0.5% Tween 80
  D50: 27.5 μm
  D90: 49.7 μm
[3]; aqueous media, across full pH range
  solubility: < 0.5 µg/mL
[3]; crystalline drug substance
  chemical stability: very good
RSV virus
  neutralizing titers, comparison of doses: Highest neutralizing titers
[4]
  systemic exposure: low systemic exposure
